Here are results for 1 compound from patent US20080299177A1, “Supramolecular Complexes for Use in Acoustically Mediated Intracellular Drug Delivery in vivo” (Biovaluation & Analysis, Inc., priority 2007, published 2008).

The subject of one data set is Mammalian Cells. Description: Ultrasound-mediated intracellular calcein delivery and cell viability (flow cytometry). It is filed as cell-based. The note with it: calcein released from supramolecular complexes, with contrast agent. The text has this: (§1) Ultrasound. Ultrasonic energy is produced using an immersible, focused, piezoceramic transducer. In this experimental system, two different matching resistance networks are necessary, allowing production of sound at 1.0 MHz and 3.0 MHz, similar to a method known in the art (Guzmán et al., 2001a, 2001b, 2002, and 2003; and Schlicher et al., 2006). A sinusoidal waveform is produced by, for example, programmable waveform generators (Stanford Research Instruments, Sunnyvale, Calif.) used in conjunction to control pulse length, frequency, and peak-to-peak voltage. The sinusoidal waveform is amplified by an RF broadband power amplifier (Electronic Navigation Industries, Rochester, N.Y.) before passing through a matching network and controlling the response of the transducer. The transducer is housed in a polycarbonate tank (FIG. 12 [601]) 34.5×32×40 cm; containing approximately 34 liters of deionized, distilled, and partially degassed water at room temperature (i.e., 22° C. to 23° C.). A thick acoustic absorber is mounted opposite the transducer to minimize standing-wave formation (not illustrated). A three-axis micropositioning system (10 μm resolution; Velmex, Bloomfield, N.Y.) is mounted on top of the tank to position samples and a hydrophone at desired locations in the tank. A PVDF membrane hydrophone (NTR Systems, Seattle, Wash.) is used to measure spatial-peak-temporal-peak negative pressure and to map and calibrate the acoustic field produced by the transducer versus the peak-to-peak voltage signal provided by a function generator.
Preparation of Nanocarriers (Supramolecular Complexes) and Samples. Before Ultrasound exposure, supramolecular complexes are prepared encapsulating calcein (i.e., 15 μM initial solution) by using a procedure of Examples 1 and 2. Samples are prepared at a cell concentration of 10^6 cells/ml, supramolecular complexes containing calcein, and the ultrasound contrast agent Optison® at concentrations of 0.30% v/v (˜1.6×10^6 bubble/ml), 1.8% v/v (˜1.1×10^7 bubble/ml), and 15.0% v/v (˜9.3×10^7 bubble/ml). Optison® is an ultrasound contrast agent, a suspension of perfluorcarbon gas bubbles stabilized with denatured human albumin that is used to serve primarily as nuclei to promote acoustic cavitation activity in sonicated samples. The product name “Optison®” may hereafter be referred to as “contrast agent” or “ultrasound contrast agent.”
Before every experiment, the desired placement of the supramolecular complex and cell samples in the acoustic field is found using the PVDF membrane hydrophone (FIG. 12 [604]). This location is approximately 1 cm and 0.5 cm out of the ultrasound's focus toward the transducer (601) (for 1.1 MHz and 3.1 MHz, respectively). The acoustic pressure is calibrated versus the peak-to-peak voltage of the signal created by the function generator, using the PVDF membrane hydrophone (604) at the desired location. These out-of-focus locations have a broader acoustic beam than at the focus, approximately 10.4-mm and 2.4-mm wide at half-amplitude (i.e., −6 dB) for 1.1 MHz and 3.1 MHz, respectively. […]
Samples are placed within chambers (605) constructed from a cylindrical bulb of polyethylene with an approximate dimension of 1.4 cm in height and 0.6 cm in diameter. […] A metal rod (606) is immediately inserted into the open end of the sample chamber and then attached to the three-axis positioning system (603), placing the sample in the desired location as determined by the hydrophone (604). […]

The subject of data set [1] is Henrietta Lacks (HeLa) cells. Put plainly: Ultrasound-mediated intracellular calcein delivery and cell viability in HeLa cells (flow cytometry). In kind it is cell-based. To be noted: HeLa cells compared with AoSMC cells; 1.1 MHz and 3.1 MHz; FIGS. 14A-14D.
Source text: as §1, with “A PVDF membrane hydrophone (NTR Systems, Seattle, Wash.) is used to measure spatial-peak-temporal-peak negative pressure and to map and calibrate the acoustic field produced by the transducer versus the peak-to-peak voltage signal provided by a function generator.” left out

Regarding `O=C(O)CN(CC(=O)O)Cc1cc2c(cc1O)Oc1cc(O)c(CN(CC(=O)O)CC(=O)O)cc1C21OC(=O)c2ccccc21` [calcein], in the data set on Mammalian Cells (mild ultrasound conditions), the calcein uptake entry is given as “low levels”. Besides, the cell death entry with Mammalian Cells (mild ultrasound conditions) was “almost no cell death”; in the data set with Mammalian Cells (moderate ultrasound conditions), “some cell death”; in the data set on Mammalian Cells (strong ultrasound conditions), “kill almost all insonated cells”; in data set [1], “lower levels of death”. Also, the “calcein uptake (fraction of cells)” value with Mammalian Cells (moderate ultrasound conditions) was “one-third”. Also, the uptake entry in data set [1] is listed as “greater uptake”.
